≈ marks a conversion by molar mass, not a printed value. Structures can show the parent of a compound that is named as a salt. Where two headings read alike, the source gives them in different places.
Columns and labels:
[1] = prior art, cited from earlier work; for solubility in water and alcohols: water and alcohols such as methanol and ethanol, in words
[2] = tested on: Pseudomonas aeruginosa IID 1117; test: Minimum inhibitory concentration, Pseudomonas aeruginosa; type: cell-based; conditions: trypticase soy broth (BBL), heart infusion agar; for Minimum inhibitory concentration: Ps. aeruginosa
Procedure: Pseudomonas aeruginosa IID 1117
(§1) The experiment was conducted according to the guide method which has been once revised and re-published by Japan Chemotherapy Association by using trypticase soy broth (BBL) as an incubation medium and heart infusion agar as a medium for determining susceptibility.

[3] = tested on: Acinetobacter anitratus RIMD 0102002; test: Minimum inhibitory concentration, Acinetobacter anitratus; type: cell-based; conditions: trypticase soy broth (BBL), heart infusion agar; for MIC: Acinetobacter calcoaceticus, RIMD0102002, A. anitratus
Procedure: Acinetobacter anitratus RIMD 0102002
as §1

[4] = tested on: Flavobacterium menigosepticum RIMD 0614002; test: Minimum inhibitory concentration, Flavobacterium menigosepticum; type: cell-based; conditions: trypticase soy broth (BBL), heart infusion agar; for Minimum inhibitory concentration: F. menigosepticum
Procedure: as §1, with “(1) Strains employed: Flavobacterium menigosepticum RIMD 0614002 (2) Method: The” for “The”

[5] = tested on: Proteus vulgaris IFO 3045; test: Minimum inhibitory concentration, Proteus vulgaris; type: cell-based; conditions: trypticase soy broth (BBL), heart infusion agar; for MIC: Proteus vulgaris, IFO3045, P. vulgaris
Procedure: Proteus vulgaris IFO 3045
as §1

[6] = tested on: Serratia marcescens IFO 12648; test: Minimum inhibitory concentration, Serratia marcescens; type: cell-based; conditions: S. marcescens, trypticase soy broth (BBL), heart infusion agar; for MIC: Serratia marcescens, IFO12648
Procedure: Serratia marcescens IFO 12648
as §1

LD50 in mice = conditions: mouse, in vivo, route not stated
[7] = tested on: A. anitratus, F. menigosepticum, P. vulgaris, Ps. aeruginosa, S. marcescens; test: Antibiotic activity compared with chlorhexidine digluconate (five strains together); type: cell-based
Procedure: as §1

Solubility = type: physicochemical; conditions: in words

Compound | solubility in water and alcohols [1] | solubility in water [1] | Minimum inhibitory concentration [2] | MIC [3] | Minimum inhibitory concentration [4] | MIC [5] | MIC [6] | other results
[H]/N=C(\N/C(=N/[H])NCCCCCCNC(=N)NC(=N)Nc1ccc(Cl)cc1)Nc1ccc(Cl)cc1 [Chlorhexidine diacetate] | sparingly soluble | 1 g per 10,000 ml |  |  |  |  |  | 
[H]/N=C(\N/C(=N/[H])NCCCCCCNC(=N)NC(=N)Nc1ccc(Cl)cc1)Nc1ccc(Cl)cc1 [Chlorhexidine digluconate, chlorhexidine digluconate] | superior solubility in water and alcohols |  | 31.3 µg/mL | 62.5 µg/mL | 125 µg/mL | 250 µg/mL | 125 µg/mL | 
[H]/N=C(\N/C(=N/[H])NCCCCCCNC(=N)NC(=N)Nc1ccc(Cl)cc1)Nc1ccc(Cl)cc1 [Chlorhexidine dihydrochloride] | sparingly soluble | 1 g per 10,000 ml |  |  |  |  |  | 
[H]/N=C(\N/C(=N/[H])NCCCCCCNC(=N)NC(=N)Nc1ccc(Cl)cc1)Nc1ccc(Cl)cc1 [Chlorhexidine disulfate] | sparingly soluble | 1 g per 10,000 ml |  |  |  |  |  | 
O=C1CC[C@@H](C(=O)O)N1 [Pyrrolidone-carboxylic acid, 2-Pyrrolidone-5-carboxylic acid] |  |  |  | 4000 µg/mL (≈ 31 mM) |  | 4000 µg/mL (≈ 31 mM) | 4000 µg/mL (≈ 31 mM) | MIC ([2]; Pseudomonas aeruginosa, IID1117, Ps. aeruginosa): 4000 µg/mL (≈ 31 mM); MIC ([4]; Flavobacterium, RIMD0614002, F. menigosepticum): 4000 µg/mL (≈ 31 mM)
[H]/N=C(\N/C(=N/[H])NCCCCCCNC(=N)NC(=N)Nc1ccc(Cl)cc1)Nc1ccc(Cl)cc1 [Salt of this invention, chlorhexidine di-2-pyrrolidone-5-carboxylate] |  |  | 15.6 µg/mL |  | 31.3 µg/mL |  |  | LD50 (LD50 in mice): ~2000 mg/kg; Minimum inhibitory concentration ([3]; A. anitratus): 31.3 µg/mL; antibiotic activity [7]: more potent antibiotic activity than the known chlorhexidine digluconate; solubility in acetone, chloroform and ether (Solubility; acetone, chloroform and ether): insoluble in acetone, chloroform and ether; solubility in water and alcohols (Solubility; water and alcohols): soluble in water and alcohols; Minimum inhibitory concentration ([5]; P. vulgaris): 125 µg/mL; Minimum inhibitory concentration [6]: 125 µg/mL

Source: patent publication US4393219A, “Salt of chlorhexidine” (Maruishi Pharmaceutical Co., Ltd., priority 1981, dated 1983)
